Results on 2 sequences are retold here after paper PMC4585929, “Cargo Delivery into the Brain by in vivo identified Transport Peptides” (Scientific Reports, 2015).

Entries after “also recorded” stand apart in the source; their conditions may differ.

Data set [1] is described as follows: Blood pharmacokinetics of i.v. injected T7 phage in cisterna magna cannulated rats (plaque counting). Type of data set: in vivo, rat. From the text: (§1) The cisterna magna (CM) was cannulated using modification of methods previously described. Anesthetized Wistar rats (200–350 g) were mounted onto a stereotaxic device and a median incision was made on the top of the shaved and aseptically prepared skin of head to expose the skull. Two holes were drilled at the parietal region and mounting screws were secured in the holes. An additional hole was drilled at the external occipital crest and used to stereotactically guide the stainless steel cannula into the CM. Dental cement was applied around the cannula and the screws to hold it in place. After light curing and solidification of the cement, the skin wound was sutured with a 4/0 supramid yarn. Correct placement of the cannula is confirmed by spontaneous flow of cerebrospinal fluid (CSF). The rats were removed from the stereotaxic apparatus, received appropriate post-operative care and analgesic treatment and allowed to recover for at least one week until no sign of blood in the CSF was observed. Wistar rats (Crl:WI/Han) were obtained from Charles River (France). All rats were kept under specific pathogen-free conditions. All animal experiments were approved by the Swiss Veterinary Office Basel-Stadt and were carried out in accordance with the animal permission #2474 (Assessment of active brain transport by measuring the level of therapeutic candidates in the rat CSF and brain).
The CM cannulated conscious rats were gently held in the hand. The mandrain was pulled out of the cannula and 10ul of the spontaneous flowing CSF was collected. […]
The amplified phages underwent 2–3 rounds of endotoxin removal using endotoxin removal beads (Miltenyi Biotec) before intravenous (i.v.) injection (500 ul/animal). […] The phage contents in the CSF and blood samples harvested at the indicated time-points were determined by a plaque counting assay according to the manufacturer’s instructions (T7Select System Manual). […] A total of four rounds of in vivo panning were performed in which two selection branches were kept and analyzed separately during the first three selection rounds. […]

The nature of data set [2]: CSF sampling model: phage recovered from CSF of cisterna magna cannulated conscious rats after i.v. injection (plaque counting). Type of data set: in vivo, rat.
Source text: as §1
The CM cannulated conscious rats were gently held in the hand. The mandrain was pulled out of the cannula and 10ul of the spontaneous flowing CSF was collected. Only clear CSF samples with no sign of blood contamination or discoloration were included in this study since patency of the cannula was eventually compromised. In parallel ∼10–20 μL blood from a small incision of the tip of the tail was collected in heparin (Sigma-Aldrich) containing tubes. CSF and blood was collected at different time points after intravenous injection of the T7 bacteriophages. Prior to collecting every CSF sample ∼5–10 μL of fluid was discarded, which represents the catheter dead volume.
The amplified phages underwent 2–3 rounds of endotoxin removal using endotoxin removal beads (Miltenyi Biotec) before intravenous (i.v.) injection (500 ul/animal). 2 × 10^12 phages were injected in the first, 2 × 10^10 phages were injected in the second and 2 × 10^9 phages were injected per animal in the third and fourth round of selection. The phage contents in the CSF and blood samples harvested at the indicated time-points were determined by a plaque counting assay according to the manufacturer’s instructions (T7Select System Manual). Phage selection was carried out by i.v. tail vein injection of the purified library or by re-injection of the CSF recovered phages of the previous selection round, and 10 min, 30 min, 60 min, 90 min, 120 min, 180 min respectively 240 min later CSF and blood samples were collected. A total of four rounds of in vivo panning were performed in which two selection branches were kept and analyzed separately during the first three selection rounds. All CSF recovered phage inserts of the first two selection rounds were subjected to 454/Roche pyrosequencing whereas all CSF recovered clones of the last two selection rounds were manually sequenced. All blood harvested phages of the first selection round were also 454/Roche pyrosequenced. For the injection of the phage clones the selected phages were amplified in E. coli (BL5615) on 500 cm^2 plates at 37 °C for 4 hours. The individually picked and manually sequenced clones were amplified in TB medium. After phage extraction, purification and endotoxin removal steps (described above) 2 × 10^10 phages/animal in 300 μl were i.v. injected into one tail vein.
Supplementary Figure 3 – Pharmacokinetic profiles of wt T7 phage in the CSF and blood
compartments. Determination of the clearance of wt phage from the blood and their occurrence in
the CSF compartment over time. […]

The next data set deals with brain capillaries. In words: Immunohistochemistry of phage particles in rat brain 1 hour after i.v. injection. Conditions: 2 × 10^10 phage/animal, FITC anti-T7 antibody. Type of data set: in vivo. As for the experimental part: Selected phage clones and insertless phage were i.v. injected via tail vein (2 × 10^10 phage/animal in 300 μl PBS). 10 minutes before perfusion and subsequent fixation 100 ul DyLight594 labeled lectin (Vector Laboratories Inc., DL-1177) was i.v. injected into the same animals. 60 minutes after phage administration rats were perfused through the heart with 50 ml PBS followed by 50 ml 4% PFA/PBS. Brain samples were additionally fixed by 4% PFA/PBS overnight and immersed in 30% sucrose at 4 °C overnight. Samples were frozen quickly in O.C.T. compound. Frozen samples were subject to immunohistochemistry, performed on 30 um freezing sections blocked with 1% BSA for 2 hours at room temperature and incubated with a polyclonal FITC labeled antibody against the T7 phage (Novus NB 600-376A) overnight at 4 °C. Finally, the sections were then washed 3 times with PBS and observed with a laser confocal microscope (Leica TCS SP5).

Where [3] appears, read: 2 × 10^10 phages/animal i.v., CM cannulated rats, result in words.
Setting [4] is: wt T7 phage, 1x10^10 phage i.v., 4 cannulated rats, plaque counting.
The mark [5] stands for this setting: wt phage i.v., average over entire sampling period (0–250 minutes).

Turning to “RLSSVDSDLSGC [#2077, T7 phage clone displaying …; also synthesized as N-terminally biotinylated transport peptide]”, the “stability in the blood / plasma half-life compared to other hits” value in data set [1] (setting [3]) is “increased stability in the blood; also recorded: prolonged plasma half-life compared to other hits”. In addition, in data set [2] (setting [3]), the “CSF concentration course over the sampling time” value is recorded as “stabilized at a high level” and the “CSF titer change during the first 10 minutes” value is recorded as “increased during the first 10 minutes”. Also, the “long term CSF profile over 48 hour period” value in data set [2] (2 × 10^10 phages/animal i.v., at least three CM cannulated rats, result in words) was “rapid increase in CSF and a sustainable level”. For the same sequence, the “CSF titer relative to empty control phage (#1779)” value in data set [2] (2 × 10^10 phages/animal tail vein i.v., at least 3 CM cannulated rats each) was “about 1000 fold”. For the same sequence, the “phage staining in the brain capillaries (IHC)” value in the data set on brain capillaries is on record as “strong staining in the brain capillaries”.
Take “PAGISRELVDKL [wt phage, wild-type T7 phage with backbone 12-mer insert …, reference compound]”: the “injected dose of wt phage detected in the blood 10 min post i.v. injection” value in data set [1] (rat, tail vein i.v., calculated from injected titer and rat blood volume) is “about 1%”. The “half-life in blood (slower first-order clearance after initial rapid drop)” value in data set [1] (setting [4]) amounted to 27.7 min. In addition, in data set [2] (setting [4]), the “half-life in CSF” value was 25.7 min. Further, in data set [2] (setting [5]), the “CSF phage as percentage of the blood T7 phage titer” value is reported as “about 1 × 10^−3%” and the “CSF phage as percentage of the initially injected phage” value is on record as ~4 × 10^−8%. Besides, in data set [2] (wt phage i.v., average over entire sampling period (0–250 minutes), listed as wt T7 phages), the “CSF phage as percentage of the blood T7 phage titer” value was determined as 0.001%.
